In general, inhibition refers to the drop in the measured response relative to a control, in per cent.

One test deals with AANAT2 (Sparus aurata, UniProt Q68SL6). Briefly: radiochemical assay, inhibition of tryptamine acetylation. It is filed as biochemical. Conditions: read-out: % inhibition at 50 mM.
The next test deals with T1, AANAT1a (Sparus aurata, UniProt Q68SL7).
T1 construct: gene AANAT1
The test is described as above. It is filed as biochemical. Particulars: read-out: % inhibition at 5 mM.

T1 sequence (Q68SL7 1-202): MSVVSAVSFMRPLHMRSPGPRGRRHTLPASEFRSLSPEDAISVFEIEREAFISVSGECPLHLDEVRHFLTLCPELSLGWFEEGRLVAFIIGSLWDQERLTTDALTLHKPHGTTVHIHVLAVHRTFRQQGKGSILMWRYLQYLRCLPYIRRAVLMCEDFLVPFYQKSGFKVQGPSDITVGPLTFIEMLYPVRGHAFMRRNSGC
Chain of AANAT2 (Q68SL6 1-205): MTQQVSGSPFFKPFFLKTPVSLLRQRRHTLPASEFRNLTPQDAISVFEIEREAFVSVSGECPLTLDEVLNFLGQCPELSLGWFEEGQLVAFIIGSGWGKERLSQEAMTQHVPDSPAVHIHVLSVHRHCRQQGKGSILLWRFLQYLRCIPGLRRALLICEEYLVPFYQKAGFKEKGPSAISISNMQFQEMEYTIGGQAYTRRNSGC

For the molecule `NCCc1ccc(O)c(O)c1` [dopamine], the inhibition at 50000 µM on AANAT2 is about 60%. The inhibition at 5000 µM on AANAT1a was about 60%.

For the origin of these results see PMC3111191, “Molecular Evolution of Multiple Arylalkylamine N-Acetyltransferase (AANAT) in Fish” (Marine Drugs, 2011).
